In paper PMC5077133, “Towards Development of Small Molecule Lipid II Inhibitors as Novel Antibiotics” (PLoS ONE, 2016):
Values joined by “and” are separate entries in the source; they are usually repeats but may differ in a detail not shown here. Identical values can stand only once. Like-named read-outs stand apart in the source and are kept apart here.

Key:
[1] = Lipid II binding by Surface Plasmon Resonance; settings: SPR, immobilized 3-Lipid II, 25°C
In short: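 Farnesyl (3-isoprene) Lipid II amine-coupled (50 RUs) on CM5 chips. Compounds injected at 10 μM, 30 μl/min, 25°C, in 10 mM HEPES, 150 mM NaCl, 0.05% P20, pH 7.4 (± 3 mM EDTA), 10% DMSO. Signals corrected against control flow-cell; kinetics fitted from binding isotherms.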

CYP2D6 = target: T1, CYP2D6 (Homo sapiens, UniProt P10635); experiment: Cytochrome P450 inhibition; type: in vitro ADME; settings: recombinant human CYP2D6 (Supersomes), pH 7.4, probe AMMC, IC50 fluorescence, substrate AMMC, read-out: P450 enzyme inhibition IC50 CYP2D6/ AMMC
T1 construct: purchased Corning
T1 sequence (P10635 whole entry): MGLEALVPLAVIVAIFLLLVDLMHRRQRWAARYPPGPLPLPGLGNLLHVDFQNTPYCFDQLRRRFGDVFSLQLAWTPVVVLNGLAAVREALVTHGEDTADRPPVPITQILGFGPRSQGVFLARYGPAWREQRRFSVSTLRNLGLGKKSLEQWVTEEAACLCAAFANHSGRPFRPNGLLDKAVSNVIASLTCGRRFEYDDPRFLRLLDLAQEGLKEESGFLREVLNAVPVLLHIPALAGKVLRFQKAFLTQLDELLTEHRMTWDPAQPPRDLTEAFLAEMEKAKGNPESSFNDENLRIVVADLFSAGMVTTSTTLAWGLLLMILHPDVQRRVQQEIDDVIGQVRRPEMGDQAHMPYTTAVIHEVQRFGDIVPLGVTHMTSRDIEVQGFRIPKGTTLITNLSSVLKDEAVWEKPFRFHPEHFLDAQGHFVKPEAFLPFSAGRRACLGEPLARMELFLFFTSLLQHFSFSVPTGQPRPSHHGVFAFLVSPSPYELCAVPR
Description: (§1) The final concentration of each substrate was 1 μM.
(§2) Computation of IC50 values:The background of no-enzyme samples to determine the background value were averaged. The positive control or full-reaction samples to determine the signal value were averaged.
(§3) The percent activity of each sample was calculated as follows:
(§4) [(Test compound metabolite–average background)/(average signal–average background)] X 100 = % activity
(§5) The the IC50 value using non-linear regression was calculated.

CYP3A4 = target: T2, CYP3A4 (Homo sapiens, UniProt P08684); experiment: Cytochrome P450 inhibition; type: in vitro ADME; settings: IC50 fluorescence
T2 construct: purchased Corning
T2 sequence (P08684 whole entry): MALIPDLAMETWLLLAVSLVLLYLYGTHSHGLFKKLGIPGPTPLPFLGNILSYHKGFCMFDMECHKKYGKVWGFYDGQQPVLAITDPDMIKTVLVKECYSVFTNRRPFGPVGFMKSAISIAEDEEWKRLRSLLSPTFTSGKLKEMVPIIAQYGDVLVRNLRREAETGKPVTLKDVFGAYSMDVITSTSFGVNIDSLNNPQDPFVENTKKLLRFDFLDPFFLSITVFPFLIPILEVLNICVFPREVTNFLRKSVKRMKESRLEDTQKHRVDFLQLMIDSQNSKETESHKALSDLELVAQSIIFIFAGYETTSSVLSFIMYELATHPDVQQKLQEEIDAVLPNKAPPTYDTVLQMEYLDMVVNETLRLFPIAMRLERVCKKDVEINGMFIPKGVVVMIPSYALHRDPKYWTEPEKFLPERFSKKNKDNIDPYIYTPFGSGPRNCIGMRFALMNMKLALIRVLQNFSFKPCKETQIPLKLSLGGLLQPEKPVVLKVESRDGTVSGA
Description: as §1, §2, §3, §4, §5

CYP2C19 = target: T3, CYP2C19 (Homo sapiens, UniProt P33261); experiment: Cytochrome P450 inhibition; type: in vitro ADME; settings: recombinant human CYP2C19 (Supersomes), pH 7.4, probe CEC, IC50 fluorescence, substrate CEC, read-out: P450 enzyme inhibition IC50 CYP2C19/CEC
T3 construct: purchased Corning
T3 sequence (P33261 whole entry): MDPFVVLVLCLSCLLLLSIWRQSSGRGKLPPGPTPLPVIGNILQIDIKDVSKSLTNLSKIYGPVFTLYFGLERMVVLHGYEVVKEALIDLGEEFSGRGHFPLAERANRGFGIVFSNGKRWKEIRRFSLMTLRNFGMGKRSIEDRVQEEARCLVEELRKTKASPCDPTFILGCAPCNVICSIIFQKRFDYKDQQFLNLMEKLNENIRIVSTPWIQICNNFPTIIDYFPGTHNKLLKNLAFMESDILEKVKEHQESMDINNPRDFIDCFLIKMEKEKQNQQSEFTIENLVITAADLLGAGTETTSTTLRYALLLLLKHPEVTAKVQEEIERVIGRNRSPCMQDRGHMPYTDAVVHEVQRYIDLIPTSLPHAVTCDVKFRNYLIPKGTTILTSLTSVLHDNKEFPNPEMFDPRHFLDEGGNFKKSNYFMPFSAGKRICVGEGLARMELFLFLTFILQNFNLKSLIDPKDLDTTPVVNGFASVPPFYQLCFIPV
Description: as §1, §2, §3, §4, §5

[2] = test system: lipid synthesis in E. faecalis EF1509; experiment: Macromolecular synthesis assay: lipid synthesis; type: cell-based; settings: Enterococcus faecalis; E. faecalis EF1509, [3H] glycerol incorporation; read-out: IC50 inhibition of lipid synthesis
Description: (§6) The effect of compounds on the macromolecular synthetic pathways of E. faecalis EF1509 were measured as follows: Cells were grown at 35°C overnight on Tryptic Soy Agar Broth (Remel, Lenexa, KS), and growth from the plate was used to inoculate 15 ml of Mueller Hinton Broth. The culture was grown to early exponential growth phase (OD600 = 0.2 to 0.3) while incubating in a shaker at 35°C and 150 rpm. For each macromolecular assay, the test agents were added at either 0, 0.25, 0.5, 1, 2, or 4, -fold their respective MIC values for E. faecalis EF1509.
For lipid synthesis, bacterial cells were grown to early exponential growth phase in MHB and 100 μl was added to 1.5 ml Eppendorf tubes (in triplicate) containing various concentrations of test compound or control antibiotics as described above. Following a 5 min incubation at room temp., [^3H] glycerol was added at 0.5 μCi per reaction. Reactions were allowed to proceed at room temperature for 40 min and then stopped through the addition of 375 μl of chloroform/methanol (1:2) followed by vortexing for 20 sec after. Chloroform (125 μl) was then added to each reaction and vortexed, followed by the addition of 125 μl dH2O and vortexing. […] Samples were then counted via liquid scintillation counting. […]

[3] = test system: protein synthesis in E. faecalis EF1509; experiment: Macromolecular synthesis assay: protein synthesis; type: cell-based; settings: Enterococcus faecalis; E. faecalis EF1509, [3H]Leucine incorporation; read-out: IC50 inhibition of protein synthesis
Description: as §6
For DNA and protein synthesis, 100 μl of cell culture reaching early exponential phase was added to triplicate wells containing various concentrations of test compound or control antibiotics (2.5 μl) at 40X the final concentration in 100% DMSO (0.1% methanol in water for Rifampicin). A 2.5% DMSO treated culture served as the “no drug” control for all experiments. Cells were added in 1.25X strength MHB to account for the volume of drug added to each reaction, or in M9 minimal medium for protein synthesis reactions. […] After washing five times with 200 μl per well of cold 5% TCA, the filters were allowed to dry, and then counted using a Packard Top Count microplate scintillation counter.

[4] = parameters: method as in PMID 25987836; settings: IV, parent compound for comparison; cited from earlier work

Row | Compound | Kd [1] [µM] | IC50 (CYP2D6) [µM] | IC50 (CYP3A4; substrate BFC, read-out: P450 enzyme inhibition IC50 CYP3A4/ BFC) [µM] | IC50 (CYP3A4; human, recombinant human CYP3A4 (Supersomes), pH 7.4, probe DBF, substrate DBF, read-out: P450 enzyme inhibition IC50 CYP3A4/ DBF) [µM] | IC50 (CYP2C19) [µM] | IC50 [2] [mg/L] | IC50 [3] [mg/L] | AUCInf [4] [µg·h/mL] | AUClast [4] [µg·h/mL] | Cl_obs [4] [L/h/kg] | Cmax [4] [µg/mL] | T1/2 [4] | Vss_obs [4] [L/kg]
1 | CN(C)c1ccc(/C=C/c2cc(-c3ccc(Br)cc3)cc(-c3ccc(Br)cc3)[o+]2)cc1 [6jc48-1] | 0.15 ± 0.03 | > 10 | 1.3 | > 10 | > 10 | 7.8 | 50.4 | – | – | – | – | – | –
2 | CN1/C(=C/C=C/c2cc(-c3ccccc3)cc(-c3ccccc3)[o+]2)C(C)(C)c2ccccc21 [BAS-00127538, (1-Methyl-2,4-diphenyl-6-((1E,3E)-3-(1,3,3-trimethylindolin-2-ylidene)prop-1-en-1-yl)pyryl-1-ium) tetrafluoroborate, reference compound] | 1.81 ± 0.3 | – | – | – | – | 2.3 | 1.6 | 0.0279 | 0.0269 | 42.7 | 0.101 | 13.2 min and 13.6 min | 12.2
